Experimental data taken from publication PMC12876990, “Targeting secreted PLA2 interactions with EGFR and vimentin to arrest prostate tumour growth” (Cell Death & Disease, 2025).
Square brackets hold non-standard residues; d marks the D form. Peptide text beside a SMILES is read from it. 2Nal = N[C@@H](Cc1ccc2ccccc2c1)C(=O)O

Key:
[1] = 28-day oral toxicity study: histopathology; format: in vivo, male Sprague Dawley rats; conditions: Gr 3, 20 mg/kg vs Gr 1
Procedure: organs. Tissues and carcas ses were placed in 10% formalin. The tissues to be processed for histopathological examinations were fixed for at least 48 hours prior to cassette preparation.
The organ weights and gross pathology changes a re included in a spreadsheet as an appendix to the report (Appendix C Study Data Spreadsheets).
3.12. Tissue proces sing / Slide preparation
The tissues were placed in labelled cassette s and placed in an automated tissue processor and taken through several stages of alcohol dehydration, solvent clearing and wax infiltration.
Infiltrated tissues were embedded in wax blo ck s, which were sectioned on a microtome at between 4 and 6 µm. Sections were placed on pre-labelled glass slides and stained with haematoxylin and eo sin (H&E). Stained section s were dehydrated, then solvent cl eared and […]
Histopathological examinations were p erformed on all animals in the vehicle control and high dose treated groups (main study) on the following tissues/organs: adrenal glands, bone marrow, brain, epididymis, heart, kidney, liver, lung, lymph node: mesenteric, prostate, seminal v esicle s with coagulating glands, small and l arge intesti ne (including Peyer’s patches), spinal cord, spleen, stomach, thymus, thyroid gland, trachea, testes and urinary bladder. Slides were evaluated for histology change s under light microscopy at a magnification of 100 to 1000 times.
(§1) Individual histopathology results and a summar y are attached a s an app endix to the report (Appendix E Histopathology).
(§2) 3.14. Statistical analyses
(§3) Clinical observations, detailed clinical observations, functional observations, blood and urine analyses and histopathology were summarised by descriptive analysis.
(§4) Statistical analyses, consisting of unpaired t-tests, were performed on measured variables: percentage body weight gain s, food consumption and organ weights as a percentage of body weight. A significance level of P < 0.05 was used for all tests.
St Geo rge C lini c al S chool

[2] = 28-day oral toxicity study: daily clinical observations; format: in vivo, male Sprague Dawley rats; parameters: key to Clinical observations: NC A, no clinical abnormalities
Procedure: 3.6. Procedure for test item administration […]
intragastric cannula attached to a 3 mL syringe.
3.7. Observation of animals […]
groups: Day 29; recovery groups: Day 43).
(Appendix C Study Data Spreadsheets). […]
report (Appendix C Study Data Spreadsheets).
3.7.3. Clinical observations […]
groups and on the day of sa crifice. […]
and abnormal behaviour. Skin and fur, eyes and mucous membranes, respiratory, […]
patterns were monitored. Particular attention was paid to observation of tremor, convulsion, salivation, diarrhoea, lethargy, sleep and coma.
3.7.4. Detailed clinical examinations […]
the report (Appendix C Study Data Spreadsheets). […]

[3] = Pharmacokinetics of tritiated cF and c2 in BALB/c mice; format: in vivo
Procedure: All animal studies were performed according to the guidelines for the ethical use of animals published by the National Health and Medical Research Council of Australia. Mouse pharmacokinetic studies were conducted with approval from the Garvan Institute Animal Ethics Committee (approval #02/21). cF and c2 were radioactively labelled with tritium by catalytic saturation of peptide analogues containing dehydroleucine (Sibtech Inc.), yielding high specific activity (50–60 Ci/mmol) peptides. Their identity was confirmed by three separate analytical methods prior to delivery. Mice (BALB/c, n = 4 per timepoint) were administered a single dose of peptide by the routes and times indicated. Animals were then exsanguinated by cardiac puncture under halothane anaesthesia followed by cervical dislocation. Tissues and plasma were stored at −80 °C prior to analysis. For plasma, a known volume of plasma was added to liquid scintillant (Ultima Gold, Perkin Elmer). For tissues, a known amount of tissue (50–100 mg) was incubated in NaOH (1 mL, 1 M) overnight at room temperature. The solutions were then bleached with disodium EDTA (100 µl, 0.1%) and hydrogen peroxide (300 µl, 30%) and incubated at 50 °C for one hour. The peptide content of plasma and tissues was determined by liquid scintillation counting. The stability of the peptides following administration to animals was evaluated by thin-layer chromatography of tissue-extracted peptide relative to peptide prior to injection (Fig. S2c).

[4] = 28-day oral toxicity study: gross necropsy and organ weights; format: in vivo, male Sprague Dawley rats; conditions: for Heart weight on Necropsy: n = 10, mean ± SD
Procedure: The observations were recorded in the form of a sp readsheet and attached as an app endix to the report (Appendix C Study Data Spreadsheets). […]
Haematology and Biochemistry). […]
(Appendix C Study Data Spreadsheets).
Following sacrifice by intraperitoneal injection of sodium pentobarbitone a gros s necrop sy wa s performed. This included determination of the wet weight of the liver, kidneys, adrenals, testes, spleen, thymus, heart, epididymis, prostate + semi nal vesicle s with coagulating glands as whole […]
and brain. […]
Tissues and carcas ses were placed in 10% formalin. The tissues to be processed for histopathological examinations were fixed for at least 48 hours prior to cassette preparation. […]
Slides were […]
evaluated for histology change s under light microscopy at a magnification of 100 to 1000 times.
as §1, §2, §3, §4

[5] = rat, in vivo, 20 mg/kg
Procedure: The calculated volumetric do se wa s administered to each rat orally by gav age, using a plastic
Two dose level s of 1 and 20 mg/kg of the te st it em susp ension were administered to each rat
every 3 days (total 10 do ses) for 28 days. This c orresponded to volumetric dose of 10.09 and
10.23 mL/kg. The volumetric dose administered to each animal was calculated on Days 1, 8, 15
Feed consumption was monitored weekly over the 28-day experimental period in all groups
and was continued for a further 2 weeks in the recovery groups (42-day experimental
period). Feed intake was monitored by providing a known mass of feed to each cage and
subtracting the mas s remaining at the end of th e weekly period. Animals were fa sted
overnight on either Day 28 (main groups) or Day 42 (recovery groups).

[6] = Day 43, Gr 5 recovery, 20 mg/kg

For `CC(C)C[C@@H]1NC(=O)[C@H](Cc2ccc3ccccc3c2)NC(=O)[C@H](CCCNC(=N)N)NC(=O)[C@H](Cc2ccc3ccccc3c2)NC(=O)[C@H](CO)NC1=O` [c2, cyclo-((2-Nal)-Leu-Ser-(2-Nal)-Arg)] (cyclo([2Nal]LS[2Nal]R)), the “histopathology: large intestine: colon” value [1] was “No treatment-related differences”, the “histopathology: liver” value [1] was “No treatment-related differences” and the “histopathology: small intestine: ileum” value [1] was “No treatment-related differences”. For the same molecule, the “histopathology: stomach” value [1] was “No treatment-related differences”, the clinical signs ([2]; 1 and 20 mg/kg) was “did not have an adverse effect” and the Clinical observations ([2]; Day 1-7, Gr 2, 1 mg/kg) was “NC A”. For the same molecule, the Clinical observations ([2]; Day 1-7, Gr 3, 20 mg/kg) was “NC A”, the Clinical observations ([2]; Day 1-7, Gr 5 recovery, 20 mg/kg) was “NC A” and the Clinical observations ([2]; Day 8-14, Gr 2, 1 mg/kg) was “NC A”. For the same molecule, the Clinical observations ([2]; Day 8-14, Gr 3, 20 mg/kg) was “NC A”, the Clinical observations ([2]; Day 8-14, Gr 5 recovery, 20 mg/kg) was “NC A” and the Clinical observations ([2]; Day 15-21, Gr 2, 1 mg/kg) was “NC A”. For the same molecule, the Clinical observations ([2]; Day 15-21, Gr 3, 20 mg/kg) was “NC A”, the Clinical observations ([2]; Day 15-21, Gr 5 recovery, 20 mg/kg) was “NC A” and the Clinical observations ([2]; Day 22-28, Gr 2, 1 mg/kg) was “NC A”. For the same molecule, the Clinical observations ([2]; Day 22-28, Gr 3, 20 mg/kg) was “NC A”, the Clinical observations ([2]; Day 22-28, Gr 5 recovery, 20 mg/kg) was “NC A” and the Clinical observations ([2]; Day 29-35, Gr 5 recovery, 20 mg/kg) was “NC A”. For the same molecule, the Clinical observations ([2]; Day 36-43, Gr 5 recovery, 20 mg/kg) was “NC A”, the “oral bioavailability (in words)” value ([3]; sc and po administration) was “orally bioavailable” and the “oral bioavailability relative to sc delivery (AUC analysis)” value ([3]; tritiated peptide 5 mg/kg, po vs sc, at 16 hours) was ~ 10%. For the same molecule, the “Heart weight (% body weight)” value ([4]; 1 mg/kg) was 0.31 ± 0.026 % body weight, the “Heart weight on Necropsy” value ([4]; 1 mg/kg) was 1.211 ± 0.1348 g and the “Heart weight (% body weight)” value ([4]; 20 mg/kg) was 0.34 ± 0.025 % body weight. The “Heart weight on Necropsy” value ([4]; 20 mg/kg) was 1.322 ± 0.1050 g, the “Organ weight: Adrenals” value ([4]; Day 29, Gr 2, 1 mg/kg) was 0.0454 ± 0.00783 g and the “Organ weight: Spleen” value ([4]; Day 29, Gr 2, 1 mg/kg) was 0.8031 ± 0.0637 g. For the same molecule, the “effect on organ weights as a percentage of body weight” value ([4]; Day 29, Gr 2, 1 mg/kg) was “did not have any effect”, the “macroscopic changes at necropsy” value ([4]; Day 29, Gr 2, 1 mg/kg) was “No gross abnormalities” and the “Organ weight: Adrenals” value ([4]; Day 29, Gr 3, 20 mg/kg) was 0.0473 ± 0.00889 g. The “effect on organ weights as a percentage of body weight” value ([4]; Day 29, Gr 3, 20 mg/kg) was “did not have any effect”, the “macroscopic changes at necropsy” value ([4]; Day 29, Gr 3, 20 mg/kg) was “No gross abnormalities” and the “Organ weight (% body weight): Adrenals” value [4, 6] was 0.0097 ± 0.00158%. For the same molecule, the “Organ weight: Adrenals” value [4, 6] was 0.0443 ± 0.0061 g, the “effect on organ weights as a percentage of body weight” value [4, 6] was “did not have any effect” and the “macroscopic changes at necropsy” value [4, 6] was “No gross abnormalities”. It also gave a Mean feed intake/cage [5] of 5180 g.
